Patent US20230144824A1, “1H-PYRAZOLO[4,3-d]PYRIMIDINE COMPOUNDS AS TOLL-LIKE RECEPTOR 7 (TLR7) AGONISTS” (BRISTOL-MYERS SQUIBB COMPANY, priority 2020, published 2023)

Assays:
[1] = test system: CD69; test: Induction of CD69 in human whole blood; format: cell-based; conditions: Homo sapiens, 17 h, 100% set to 1 uM of resiquimod, average where assay performed multiple times, read-out: hWB CD69 EC50
Outline: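 Heparinized human whole blood treated with TLR7 agonist at final 1 uM and incubated 17 h at 37° C. CD69 surface staining alongside CD14 and CD19, then fix/lysis and flow cytometry on iQuePlus. Curves fitted with 1 uM resiquimod set as 100%.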

[2] = target: T1, human TLR7 (Homo sapiens, UniProt Q9NYK1); test: Human TLR7 agonist activity assay (HEK-Blue TLR7 SEAP reporter); format: cell-based; conditions: HEK-Blue TLR7 cells, 18 h treatment, average where assay performed multiple times, read-out: hTLR7 Agonism EC50
T1 construct: host or cells: HEK-Blue TLR7 cells (engineered human embryonic kidney cells)
T1 sequence (Q9NYK1 27-1049): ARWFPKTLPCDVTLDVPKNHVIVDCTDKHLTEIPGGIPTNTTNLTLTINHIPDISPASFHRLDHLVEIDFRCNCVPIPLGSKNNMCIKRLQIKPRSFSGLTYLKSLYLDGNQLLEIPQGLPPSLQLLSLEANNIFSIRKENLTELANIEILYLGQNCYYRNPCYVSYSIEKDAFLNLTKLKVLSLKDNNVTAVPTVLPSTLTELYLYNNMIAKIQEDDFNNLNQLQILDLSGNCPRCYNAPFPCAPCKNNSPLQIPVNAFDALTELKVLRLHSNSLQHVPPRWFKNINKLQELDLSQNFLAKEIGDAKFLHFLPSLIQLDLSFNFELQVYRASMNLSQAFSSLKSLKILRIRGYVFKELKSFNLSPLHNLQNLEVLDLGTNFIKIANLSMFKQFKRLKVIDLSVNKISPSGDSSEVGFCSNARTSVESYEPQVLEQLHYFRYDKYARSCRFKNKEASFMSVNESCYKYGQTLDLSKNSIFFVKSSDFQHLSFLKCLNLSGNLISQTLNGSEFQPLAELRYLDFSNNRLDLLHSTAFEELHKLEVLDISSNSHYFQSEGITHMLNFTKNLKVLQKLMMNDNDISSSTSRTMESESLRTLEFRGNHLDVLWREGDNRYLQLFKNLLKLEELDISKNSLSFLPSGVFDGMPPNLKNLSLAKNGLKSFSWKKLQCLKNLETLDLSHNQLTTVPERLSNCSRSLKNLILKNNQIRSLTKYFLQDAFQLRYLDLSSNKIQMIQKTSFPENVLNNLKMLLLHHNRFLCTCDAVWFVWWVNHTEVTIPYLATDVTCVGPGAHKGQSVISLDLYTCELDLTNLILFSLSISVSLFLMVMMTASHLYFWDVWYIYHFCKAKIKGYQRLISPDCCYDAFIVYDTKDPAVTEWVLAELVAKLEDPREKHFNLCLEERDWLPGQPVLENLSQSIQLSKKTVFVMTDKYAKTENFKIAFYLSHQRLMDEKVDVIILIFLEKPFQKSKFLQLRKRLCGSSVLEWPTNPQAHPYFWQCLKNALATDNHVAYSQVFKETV
Outline: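 HEK-Blue TLR7 cells (15,000/well) treated with compound for 18 h at 37 °C, 5% CO2. Secreted SEAP measured with Quanti-Blue, 30 min, OD 620 nm. EC50 taken as concentration giving half-maximal response between baseline and maximum.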

Row | SMILES | EC50 [1] [nM] | EC50 [2] [nM]
1 | CCC[C@@H](CCO)Nc1nc(N)nc2cnn(Cc3ncc(C4CCN(C5CC6(CNC6)C5)CC4)cc3OC)c12 [Compound 150, (3S)-3-[(5-amino-1-{[5-(1-{2-azaspiro[3.3]heptan-6-yl}piperidin-4-yl)-3-methoxypyridin-2-yl]methyl}-1H-pyrazolo[4,3-d]pyrimidin-7-yl)amino]hexan-1-ol] | 44.1 | 88.8
2 | CCCCNc1nc(N)nc2cnn(Cc3ccc(C4CCN(S(C)(=O)=O)CC4)cc3OC)c12 [Compound 161, N7-butyl-1-{[4-(1-methanesulfonylpiperidin-4-yl)-2-methoxyphenyl]methyl}-1H-pyrazolo[4,3-d]pyrimidine-5,7-diamine] | 36 | 107
3 | CCCCNc1nc(N)nc2c(C)nn(Cc3ncc(C4CCN(C)CC4)cc3OC)c12 [Compound 123, N7-butyl-1-{[3-methoxy-5-(1-methylpiperidin-4-yl)pyridin-2-yl]methyl}-3-methyl-1H-pyrazolo[4,3-d]pyrimidine-5,7-diamine] | 40.2 | 491
4 | COc1cc(C2CCN(C3CNC3)CC2)cnc1Cn1ncc2nc(N)nc(NCc3cc(C)on3)c21 [Compound 143, 1-({5-[1-(azetidin-3-yl)piperidin-4-yl]-3-methoxypyridin-2-yl}methyl)-N7-[(5-methyl-1,2-oxazol-3-yl)methyl]-1H-pyrazolo[4,3-d]pyrimidine-5,7-diamine] | 265 | 295
5 | CCCCNc1nc(N)nc2cnn(Cc3ncc(C4CCN(CC(=O)N(C)C)CC4)cc3OC)c12 [Compound 120, 2-[4-(6-{[5-amino-7-(butylamino)-1H-pyrazolo[4,3-d]pyrimidin-1-yl]methyl}-5-methoxypyridin-3-yl)piperidin-1-yl]-N,N-dimethylacetamide] | 2 | 79.1
6 | CCC[C@@H](CCO)Nc1nc(N)nc2cnn(Cc3ncc(C4CCN(C(=O)CN(C)C)CC4)cc3OC)c12 [Compound 135, 1-(4-{6-[(5-amino-7-{[(3S)-1-hydroxyhexan-3-yl]amino}-1H-pyrazolo[4,3-d]pyrimidin-1-yl)methyl]-5-methoxypyridin-3-yl}piperidin-1-yl)-2-(dimethylamino)ethan-1-one] | 11.7 | 41.4

Further lines, results first:

Row | EC50 [1] [nM] | EC50 [2] [nM] | SMILES
7 | 9.9 | 579 | CCC[C@@H](CCO)Nc1nc(N)nc2cnn(Cc3nnc(C4CCN(C(C)C)CC4)cc3OC)c12 [Compound 177, (3S)-3-{[5-amino-1-({4-methoxy-6-[1-(propan-2-yl)piperidin-4-yl]pyridazin-3-yl}methyl)-1H-pyrazolo[4,3-d]pyrimidin-7-yl]amino}hexan-1-ol]
8 | 0.065 | 5 | CCCCNc1nc(N)nc2cnn(Cc3ccc(C4CCN(C)CC4)cc3OC)c12 [Compound 163, N7-butyl-1-{[2-methoxy-4-(1-methylpiperidin-4-yl)phenyl]methyl}-1H-pyrazolo[4,3-d]pyrimidine-5,7-diamine]
9 | 3.9 | 41 | CCC[C@@H](CCO)Nc1nc(N)nc2cnn(Cc3ncc(C4CCN(CCN(C)C)CC4)cc3OC)c12 [Compound 164, (3S)-3-({5-amino-1-[(5-{1-[2-(dimethylamino)ethyl]piperidin-4-yl}-3-methoxypyridin-2-yl)methyl]-1H-pyrazolo[4,3-d]pyrimidin-7-yl}amino)hexan-1-ol]
10 | 128 | 53.3 | CCCCNc1nc(N)nc2cnn(Cc3cc(F)c(N4CCN(C(=O)CNC5CCOCC5)CC4)cc3OC)c12 [Compound 195, 1-[4-(4-{[5-amino-7-(butylamino)-1H-pyrazolo[4,3-d]pyrimidin-1-yl]methyl}-2-fluoro-5-methoxyphenyl)piperazin-1-yl]-2-[(oxan-4-yl)amino]ethan-1-one]
11 | 1000 | 320 | CCCCNc1nc(N)nc2cnn(Cc3cc(F)c(N4CCN(C(=O)CNCCS(C)(=O)=O)CC4)cc3OC)c12 [Compound 197, 1-[4-(4-{[5-amino-7-(butylamino)-1H-pyrazolo[4,3-d]pyrimidin-1-yl]methyl}-2-fluoro-5-methoxyphenyl)piperazin-1-yl]-2-[(2-methanesulfonylethyl)amino]ethan-1-one]
